In PubChem BioAssay AID850 (SRMLSC, 2007):
Activity calls are given as the source filed them. The rule behind the calls is not given here.

Tests used:
[1] = test system: Saccharomyces cerevisiae growth inhibition, permissive control; assay: yeast lifespan-shortening chemical project counter-assay, dose-response inhibition of growth under permissive conditions (AID 850);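 note: growth read as optical density after one day of incubation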
[2] = as above; conditions: Saccharomyces cerevisiae growth inhibition, permissive control, measured here: maximum growth inhibition, stronger effect = higher value

Structure (SMILES) | IC50 [1] | inhibition ([2]; at 50 µM) | other results
CCCCOC(=O)Sc1nc2ccccc2o1 | 14.5 µM | 101% | –
Cc1noc2ncnc(Sc3ccccc3Cl)c12 | 39.5 µM | 69% | –
CCC(C)/C(C)=N/NC(=O)c1ccc(COc2ccc(Cl)c(C)c2)cc1 (stereo unspecified) | 27 µM | 83.8% | –
N/C(Cc1ccc(Cl)cc1Cl)=N\OC(=O)c1cccs1 | 0.925 µM | – | inhibition ([2]; at 12.5 µM): 100%
CSC1=NSC2=NC(=O)/C(=C/c3coc4ccccc4c3=O)C(=N)N12 | > 100 µM (inactive) | 28.3% | –
COc1ccc(-c2cc3nc(C)cc(N4CC(C)CC(C)C4)n3n2)cc1 (stereo unspecified) | 50.7 µM | 48.3% | –
COc1ccc(/C=C/C(=O)c2cc(Br)ccc(=O)c2O)cc1 | 16.1 µM | 93.6% | –
CCCCOc1ccc(C(=O)NNC(=S)NC(=O)CC)cc1 | 24.8 µM | 81.6% | –
O=C1c2ccccc2NC(c2ccc(-c3cccc(Cl)c3)o2)N1O (stereo unspecified) | 47.1 µM | 52.3% | –
c1ccc(-c2nc3c(ccc4ccccc43)[nH]2)nc1 | 36.8 µM | 80.8% | –
Clc1ccc(COC(Cn2ccnc2)c2ccc(Cl)cc2Cl)c(Cl)c1 (stereo unspecified) | < 0.098 µM | 101% | –
FC(F)Sc1ccc(Nc2ncnc3nc[nH]c23)cc1 | > 100 µM (inactive) | – | inhibition ([2]; at 1.563 µM): 11.9%
Cc1ccc(NC(=O)ON=C2CCCC2)cc1 | 15.2 µM | 99.4% | –
CN(C)c1ccc(/C=C/c2ccc3ccccc3[n+]2C)cc1 | 22.3 µM | 85.8% | –
Cc1cccc(NC(=O)CC2SC(=O)N(c3ccccc3)C2=O)c1 (stereo unspecified) | > 100 µM (inactive) | -6.43% | –
O=C(CC(O)(C(F)(F)F)C(F)(F)F)Nc1ccc(Cl)c(Cl)c1 | 19.2 µM | 92.8% | –
CCSc1ncc(/C=N/Nc2ccc(Cl)cc2)n1C | 6.82 µM | 94.7% | –
O=C1OCC(CO)(CO)N=C1NNc1ccc(Cl)c(Cl)c1 | 1.6 µM | 98.6% | –
C=CCNC(=S)N/N=C(\C)c1ccccn1 | 13.8 µM | 99.4% | –
COc1ccc(CNC(=O)CSc2nnc(-c3ccc(NC(C)=O)cc3)n2C)cc1 | > 100 µM (inactive) | – | inhibition ([2]; at 3.125 µM): 26.8%
CCCCCCc1ccc(-c2ncc(N)cn2)cc1 | 22.9 µM | 99.2% | –
Cc1nnc(C)n1/N=C/c1cc(Br)cc(Br)c1O | 0.324 µM | 99.2% | –
CCOc1ccc(N/N=C(/C#N)C(N)=O)cc1 | 11 µM | 87.7% | –

Structure (SMILES) | IC50 [1] | inhibition ([2]; at 50 µM) | other results
CC(=O)/C(=N\Nc1ccc(C)cc1)N1CCOCC1 | 5.2 µM | 96.4% | –
O=C(CSCc1ccco1)Nc1cc(C(F)(F)F)ccc1N1CCOCC1 | > 100 µM (inactive) | – | inhibition ([2]; at 0.781 µM): 16.7%
Clc1ccc(CCNc2nc3ccccc3s2)cc1 | > 100 µM (inactive) | – | inhibition ([2]; at 0.195 µM): -6.19%
O=C1CC(N2CCN(c3nc4ccccc4s3)CC2)C(=O)N1Cc1cccs1 (stereo unspecified) | > 100 µM (inactive) | – | inhibition ([2]; at 0.781 µM): 28.5%
Cc1cccc(OCCN2CSC(=S)N(C)C2)c1 | 10.6 µM | 87.3% | –
NC(=O)c1sc2nc(-c3ccco3)ccc2c1N | > 100 µM (inactive) | – | inhibition ([2]; at 1.563 µM): 8.46%
CC1(C)C(C=C(Cl)Cl)C1C(=O)Nc1ccc([N+](=O)[O-])cc1 (stereo unspecified) | > 100 µM (inactive) | 15.4% | –
c1ccc2nc3c(nc2c1)[nH]c1ccccc13 | > 100 µM (inactive) | 19.1% | –
CCOC(=O)c1cnc(-n2nc(C)cc2C)nc1NCCc1ccccc1 | > 100 µM (inactive) | 17.4% | –
CC(Sc1cccc[n+]1[O-])C(=O)Nc1cccc(S(=O)(=O)N2CCOCC2)c1 (stereo unspecified) | 8.22 µM | 99.8% | –
COc1ccc(-c2n[nH]c(C)c2-c2ccc(Cl)cc2)c(O)c1 | 33.9 µM | 99% | –
CN(c1ccc(O)cc1)c1nc(-c2ccccc2)cs1 | > 100 µM (inactive) | – | inhibition ([2]; at 0.781 µM): 9.5%
O/N=C/c1cc(Cl)ccc1OCc1cccc2ccccc12 | > 100 µM (inactive) | – | inhibition ([2]; at 0.391 µM): 11.2%
CN1C(=O)C2(N=c3ccccc3=N2)c2ccccc21 | > 100 µM (inactive) | 21.4% | –
CCc1nc2ccccc2c(=O)n1NC(=O)c1c(O)c2cccc3c2n(c1=O)CCC3 | > 100 µM (inactive) | 2.73% | –
O=C1c2ccc3c4c(ccc(c24)C(=O)N1NC(=O)C(F)(F)F)CC3 | > 100 µM (inactive) | – | inhibition ([2]; at 0.195 µM): 15.2%
OC(CNCC1CCCO1)Cn1c2ccc(Br)cc2c2cc(Br)ccc21 (stereo unspecified) | 41 µM | 98.8% | –
O=C(Nc1nc(-c2ccccn2)cs1)C1COc2ccccc2O1 (stereo unspecified) | 11.6 µM | 95.2% | –
Cc1ccc(/C(N)=N/OC(=O)c2ccc(C)cc2Cl)cc1 | 8.59 µM | 98.4% | –
CCn1c(=O)c(C(=O)Nn2c(C)nc3ccccc3c2=O)c(O)c2ccccc21 | 13.4 µM | – | inhibition ([2]; at 25 µM): 99%
O=C(COc1ccccc1)N1CCN=C1SCc1cccnc1 | > 100 µM (inactive) | – | inhibition ([2]; at 0.781 µM): 11.2%
O=C(N/N=C\c1cccc([N+](=O)[O-])c1O)C1COc2ccccc2O1 (stereo unspecified) | 22 µM | 74.8% | –
Clc1ccc2[nH]c3c(c2c1)CCc1cn[nH]c1-3 | 5.72 µM | – | inhibition ([2]; at 25 µM): 93.8%

Structure (SMILES) | IC50 [1] | inhibition ([2]; at 50 µM) | other results
CCCS(=O)(=O)c1nnnn1-c1cccc(OC)c1 | 5.29 µM | 99% | –
CC(C)N=c1scc(-c2cccs2)n1/N=C/c1ccc(O)c(O)c1O | > 100 µM (inactive) | – | inhibition ([2]; at 0.195 µM): 2.13%
S=C(NCc1ccc(Cl)cc1)NC12CC3CC(CC(C3)C1)C2 | > 100 µM (inactive) | – | inhibition ([2]; at 0.195 µM): 14.1%
CC(=O)O/N=C/c1c(N2CCOCC2)n(C)c2ccccc12 | 17.5 µM | 96.5% | –
Cc1[nH]n(-c2ccccc2)c(=O)c1/C=N/N1C(=O)c2ccc3c4c(ccc(c24)C1=O)CC3 | > 100 µM (inactive) | – | inhibition ([2]; at 0.781 µM): 8.51%
COc1ccccc1-n1c(=O)oc2ccc(Cl)cc2c1=O | > 100 µM (inactive) | – | inhibition ([2]; at 6.25 µM): -0.76%
COc1ccccc1C(=O)NNC(=S)NC(=O)c1ccco1 | > 100 µM (inactive) | 29.3% | –
CCCCNC(=S)NCc1ccc2c(c1)cc(C)n2C | > 100 µM (inactive) | – | inhibition ([2]; at 0.781 µM): 0.79%
COc1cc(-c2nc3ccc4ccccc4c3c3c2CCC3)ccc1O | > 100 µM (inactive) | – | inhibition ([2]; at 3.125 µM): 11.9%
COc1ccccc1OCCCc1c(C)n[nH]c1C | 5.76 µM | 100% | –
O=C(O)c1cc(-c2ccc(/C=N/Nc3ccc(Cl)cc3)o2)ccc1Cl | 4.41 µM | 98.8% | –
Cc1ccc(Nc2cc(C)nn2-c2nc(C)cc(=O)[nH]2)cc1 | 0.708 µM | – | inhibition ([2]; at 6.25 µM): 96.6%
CCOC(=O)C1=Nc2ccccc2C1=[N+]=[N-] | 5.45 µM | 99.2% | –
Cc1c(Cl)cccc1N=Cc1ccc([N+](=O)[O-])s1 | > 100 µM (inactive) | 9.36% | –
O=c1[nH]c(Nc2ccccc2)cc2ccccc12 | > 100 µM (inactive) | 25.9% | –
Cc1ccc(C(=O)c2c(C)oc3c2C(=O)C(=O)c2ccccc2-3)cc1 | 43.6 µM | 95.5% | –
C=C(C)COc1ccc(-c2[nH]ncc2-c2ccc(Br)cc2)c(O)c1 | > 100 µM (inactive) | – | inhibition ([2]; at 25 µM): 15.9%
Cc1ccc(C(=O)O/N=C/c2c(N3CCOCC3)n(C)c3ccccc23)cc1 | > 100 µM (inactive) | – | inhibition ([2]; at 6.25 µM): 18.7%
Cc1ccc(/C=C/C(=O)c2ccccc(=O)c2O)c(C)c1 | 6.08 µM | – | inhibition ([2]; at 25 µM): 101%
COc1cc(OC)nc(NC(=O)CS(=O)(=O)c2ccccc2)n1 | 17.4 µM | 77.3% | –
CCOC(=O)/C(=N\Nc1cccc(C(F)(F)F)c1)N(CCOC)CCOC | > 100 µM (inactive) | – | inhibition ([2]; at 12.5 µM): -1.36%
Nc1ccc(C(=O)OCC(=O)Nc2ccc3c(c2)OCO3)cc1[N+](=O)[O-] | > 100 µM (inactive) | – | inhibition ([2]; at 0.391 µM): 17.2%
